Results published in US12466821B2 (Novartis AG, priority 2018, dated 2025).

Columns and labels:
[1] = molecular target: human CMV DNA polymerase UL54 (Human cytomegalovirus (strain AD169) (HHV-5) (Human herpesvirus 5), UniProt P08546); test: CMV polymerase biochemical assay (molecular beacon-based)
Summary of the method: (§1)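 Readout was beacon fluorescence (ex 480, em 535 nm), used to derive IC50. Each dNTP was at 1.25 uM, with 200 nM primer and 100 nM beacon, after a 30-min RT inhibitor preincubation. Enzyme was 625 pM for HSV UL30 (20 min RT reaction) or 100 pM for CMV UL54 (60 min RT), both sf9-expressed MBP fusions, in pH 7.5 Tris buffer with MgCl2.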

[2] = molecular target: human HSV DNA polymerase UL30 (Human herpesvirus 1 (strain 17) (HHV-1) (Human herpes simplex virus 1), UniProt P04293); test: HSV polymerase biochemical assay (molecular beacon-based)
Summary of the method: as §1

[3] = tested on: Luciferase-encoding HCMV, AD169 strain; test: CMV Luciferase assay (cellular herpesvirus replication); format: cell-based; settings: Human betaherpesvirus 5, AD169, read-out: CMV-Luc Cellular EC50
Summary of the method: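 Neonatal human dermal fibroblasts were pretreated 1 h with compound (final 0.0159–50 μM or 0.00318–10 μM, 0.5% DMSO), then infected at MOI 1 with AD169 carrying pp28-promoter luciferase. After 72 h at 37 °C, Renilla-Glo luminescence normalized to no-virus and virus-only controls; EC50 by 4-parameter logistic model.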

N#Cc1ccc(CNC(=O)c2ccc3n(c2=O)CCN(CC2(S(=O)(=O)C4(CF)CC4)CC2)C3=O)cc1F [Example 14]
IC50 [1]: 0.3 nM
IC50 [2]: 27.9 nM
EC50 [3]: 10 nM

N#Cc1ccc(CNC(=O)c2ccc3n(c2=O)CCN(CC2(S(=O)(=O)C4CC(F)(F)C4)CC2)C3=O)cc1 [Example 83, N-(4-cyanobenzyl)-2-((1-((3,3-difluorocyclobutyl)sulfonyl)cyclopropyl)methyl)-1,6-dioxo-2,3,4,6-tetrahydro-1H-pyrido[1,2-a]pyrazine-7-carboxamide]
IC50 [1]: 4.4 nM
IC50 [2]: 101 nM
EC50 [3]: 146 nM

CS(=O)(=O)C1(CN2CCn3c(ccc(C(=O)NCc4ncc(Cl)cn4)c3=O)C2=O)CC1 [Example 40]
IC50 [1]: 480 nM
IC50 [2]: 28300 nM
EC50 [3]: 10000 nM

N#Cc1ccc(CNC(=O)c2ccc3n(c2=O)CCN(CC2(S(=O)(=O)CC4(C#N)CC4)CC2)C3=O)cc1 [Example 111]
IC50 [1]: 3.6 nM
IC50 [2]: 59.5 nM
EC50 [3]: 433 nM

CS(=O)(=O)N1CCC[C@H]1CN1CCn2c(ccc(C(=O)NCc3ccc(Cl)cc3)c2=O)C1=O [Example 63-1]
IC50 [1]: 1400 nM
IC50 [2]: 23400 nM
EC50 [3]: 42700 nM

CS(=O)(=O)CCCN1CCn2c(c(N3CCCC3)cc(C(=O)NCc3ccc(Cl)cc3)c2=O)C1=O [Example 158, N-(4-chlorobenzyl)-2-(3-(methylsulfonyl)propyl)-1,6-dioxo-9-(pyrrolidin-1-yl)-1,3,4,6-tetrahydro-2H-pyrido[1,2-a]pyrazine-7-carboxamide]
IC50 [1]: 370 nM
IC50 [2]: 4090 nM
EC50 [3]: 13300 nM

CNS(=O)(=O)C1(CN2CCn3c(ccc(C(=O)NCc4ccc(C#N)cc4)c3=O)C2=O)CC1 [Example 75-2]
IC50 [1]: 2.7 nM
IC50 [2]: 77.3 nM
EC50 [3]: 62.2 nM

CC1(CS(=O)(=O)C2(CN3CCn4c(ccc(C(=O)NCc5ccc(C#N)c(F)c5)c4=O)C3=O)CC2)COC1 [Example 103-3]
IC50 [1]: 10.8 nM
IC50 [2]: 170 nM
EC50 [3]: 791 nM

C[C@H](CCO)S(=O)(=O)C1(CN2CCn3c(ccc(C(=O)NCc4ccc(Cl)cc4)c3=O)C2=O)CC1 (single isomer, unassigned) [Example 6, N-(4-chlorobenzyl)-2-((1-((4-hydroxybutan-2-yl)sulfonyl)cyclopropyl)methyl)-1,6-dioxo-2,3,4,6-tetrahydro-1H-pyrido[1,2-a]pyrazine-7-carboxamide]
IC50 [1]: 2.4 nM
IC50 [2]: 54.8 nM
EC50 [3]: 92.8 nM

CN1CC(S(=O)(=O)C2(CN3CCn4c(ccc(C(=O)NCc5ccc(C#N)cc5)c4=O)C3=O)CC2)C1 [Example 20]
IC50 [1]: 13.2 nM
IC50 [2]: 319 nM
EC50 [3]: 1500 nM

C[S@@](=N)(=O)C1(CN2CCn3c(ccc(C(=O)NCc4ccc(Cl)cc4)c3=O)C2=O)CC1 (single isomer, unassigned) [Example 96-1]
IC50 [1]: 12.6 nM
IC50 [2]: 372 nM
EC50 [3]: 244 nM

O=C(NCc1ccc(F)cc1)c1ccc2n(c1=O)CCN(CC1(S(=O)(=O)C3CC3)CC1)C2=O [Example 3-2]
IC50 [1]: 3 nM
IC50 [2]: 78.7 nM
EC50 [3]: 84.8 nM

N#Cc1ccc(CNC(=O)c2ccc3n(c2=O)CCN(CC2(S(=O)(=O)C4CC4(F)F)CC2)C3=O)cc1 (stereo not drawn) [Example 98-1]
IC50 [1]: 1.5 nM
IC50 [2]: 57.5 nM
EC50 [3]: 65.2 nM

CC(C)(c1ncno1)S(=O)(=O)C1(CN2CCn3c(ccc(C(=O)NCc4ccc(Cl)cc4)c3=O)C2=O)CC1 [Example 178, 2-((1-((2-(1,2,4-oxadiazol-5-yl)propan-2-yl)sulfonyl)cyclopropyl)methyl)-N-(4-chlorobenzyl)-1,6-dioxo-1,3,4,6-tetrahydro-2H-pyrido[1,2-a]pyrazine-7-carboxamide]
IC50 [1]: 0.3 nM
IC50 [2]: 10 nM
EC50 [3]: 43.4 nM

N#Cc1ccc(CNC(=O)c2ccc3n(c2=O)CCN(CC2(S(=O)(=O)N4CCC4)CC2)C3=O)cc1 [Example 88-2]
IC50 [1]: 3.2 nM
IC50 [2]: 73.5 nM
EC50 [3]: 39.5 nM

CC(C)S(=O)(=O)C1(CN2CCn3c(ccc(C(=O)NCc4ccc(Cl)cc4)c3=O)C2=O)CC1 [Example 31]
IC50 [1]: 0.9 nM
IC50 [2]: 30.6 nM
EC50 [3]: 12.4 nM

N#Cc1ccc(CNC(=O)c2ccc3n(c2=O)CCN(CC2(S(=O)(=O)C4(C(F)(F)F)CC4)CC2)C3=O)cc1F [Example 97-2]
IC50 [1]: 3.2 nM
IC50 [2]: 90.8 nM
EC50 [3]: 189 nM

CC(C)(CN)S(=O)(=O)C1(CN2CCn3c(ccc(C(=O)NCc4ccc(C#N)cc4)c3=O)C2=O)CC1 [Example 184]
IC50 [1]: 3.9 nM
IC50 [2]: 60.3 nM
EC50 [3]: 31.6 nM

CCS(=O)(=O)C1(CN2CCn3c(ccc(C(=O)NCc4ccc(Cl)cc4)c3=O)C2=O)CC1 [Example 36]
IC50 [1]: 0.7 nM
IC50 [2]: 42.3 nM
EC50 [3]: 24.9 nM

O=C(NCc1ccc(Cl)cc1)c1ccc2n(c1=O)CCN(CC1(S(=O)(=O)C3CCNC3)CC1)C2=O (stereo not drawn) [Example 80-1, N-(4-chlorobenzyl)-1,6-dioxo-2-((1-(pyrrolidin-3-ylsulfonyl)cyclopropyl)methyl)-2,3,4,6-tetrahydro-1H-pyrido[1,2-a]pyrazine-7-carboxamide]
IC50 [1]: 3.4 nM
IC50 [2]: 97.6 nM
EC50 [3]: 216 nM

N#Cc1ccc(CNC(=O)c2ccc3n(c2=O)CCN(CCS(=O)(=O)C2CC2)C3=O)cc1 [Example 194]
IC50 [1]: 103 nM
IC50 [2]: 855 nM
EC50 [3]: 4220 nM

O=C(NCc1ccc(Cl)cc1)c1ccc2n(c1=O)CCN(CC1(S(=O)(=O)C3(F)CC3)CC1)C2=O [Example 76, N-(4-chlorobenzyl)-2-((1-((1-fluorocyclopropyl)sulfonyl)cyclopropyl)methyl)-1,6-dioxo-2,3,4,6-tetrahydro-1H-pyrido[1,2-a]pyrazine-7-carboxamide]
IC50 [1]: 1.9 nM
IC50 [2]: 59.5 nM
EC50 [3]: 46.9 nM

N#Cc1ccc(CNC(=O)c2ccc3n(c2=O)CCN(CC2(S(=O)(=O)C4COC4)CC2)C3=O)cc1 [Example 28]
IC50 [1]: 2.7 nM
IC50 [2]: 68.7 nM
EC50 [3]: 116 nM

N#Cc1ccc(CNC(=O)c2ccc3n(c2=O)CCN(CC2(S(=O)(=O)C4CNC4)CC2)C3=O)cc1F [Example 16, 2-((1-(azetidin-3-ylsulfonyl)cyclopropyl)methyl)-N-(4-cyano-3-fluorobenzyl)-1,6-dioxo-2,3,4,6-tetrahydro-1H-pyrido[1,2-a]pyrazine-7-carboxamide]
IC50 [1]: 6.1 nM
IC50 [2]: 285 nM
EC50 [3]: 3420 nM

CS(=O)(=O)C1(CN2CCn3c(ccc(C(=O)NCc4ccc(C#N)c(F)c4)c3=O)C2=O)CC1 [Example 39]
IC50 [1]: 3.5 nM
IC50 [2]: 105 nM
EC50 [3]: 102 nM

O=C(NCc1ccc(Cl)cc1)c1ccc2n(c1=O)CCN(CC1(NS(=O)(=O)C3CC3)CC1)C2=O [Example 200]
IC50 [1]: 232 nM
IC50 [2]: 2560 nM
EC50 [3]: 6770 nM

CN(C)S(=O)(=O)CCN1CCn2c(ccc(C(=O)NCc3ccc(Cl)cc3)c2=O)C1=O [Example 71, N-(4-chlorobenzyl)-2-(2-(N,N-dimethylsulfamoyl)ethyl)-1,6-dioxo-2,3,4,6-tetrahydro-1H-pyrido[1,2-a]pyrazine-7-carboxamide]
IC50 [1]: 347 nM
IC50 [2]: 2780 nM
EC50 [3]: 3050 nM

CS(=O)(=O)C1(CN2CCn3c(ccc(C(=O)NCc4ccc(C#N)cc4F)c3=O)C2=O)CC1 [Example 38]
IC50 [1]: 12 nM
IC50 [2]: 630 nM
EC50 [3]: 868 nM

N#Cc1ccc(CNC(=O)c2ccc3n(c2=O)CCN(CC2(S(=O)(=O)[C@@H]4CC4(F)F)CC2)C3=O)cc1F (single isomer, unassigned) [Example 101-2]
IC50 [1]: 0.6 nM
IC50 [2]: 32.9 nM
EC50 [3]: 29.6 nM

NS(=O)(=O)C1(CN2CCn3c(ccc(C(=O)NCc4ccc(Cl)cc4)c3=O)C2=O)CC1 [Example 72-2, N-(4-chlorobenzyl)-1,6-dioxo-2-((1-sulfamoylcyclopropyl)methyl)-2,3,4,6-tetrahydro-1H-pyrido[1,2-a]pyrazine-7-carboxamide]
IC50 [1]: 1.2 nM
IC50 [2]: 26.4 nM
EC50 [3]: 50.2 nM

N#Cc1ccc(CNC(=O)c2ccc3n(c2=O)CCN(CC2(S(=O)(=O)C4(F)CC4)CC2)C3=O)cc1F [Example 77-2]
IC50 [1]: 1.9 nM
IC50 [2]: 77.2 nM
EC50 [3]: 57.7 nM

N#Cc1ccc(CNC(=O)c2ccc3n(c2=O)CCN(CC2(S(=O)(=O)C4(CO)CC4)CC2)C3=O)cc1 [Example 11]
IC50 [1]: 0.4 nM
IC50 [2]: 24.3 nM
EC50 [3]: 26.7 nM

CC(CN1CCn2c(ccc(C(=O)NCc3ccc(Cl)cc3)c2=O)C1=O)S(=O)(=O)C1CC1 (stereo not drawn) [Example 191]
IC50 [1]: 76.5 nM
IC50 [2]: 5460 nM
EC50 [3]: 3460 nM

CS(=O)(=O)CCCN1CCn2c(c(C#CCO)cc(C(=O)NCc3ccc(Cl)cc3)c2=O)C1=O [Example 156]
IC50 [1]: 913 nM
IC50 [2]: 2110 nM
EC50 [3]: 50000 nM

O=C(NCc1ccc(Cl)cc1)c1ccc2n(c1=O)CCN(CCO)C2=O [Example 116, N-(4-chlorobenzyl)-2-(2-hydroxyethyl)-1,6-dioxo-2,3,4,6-tetrahydro-1H-pyrido[1,2-a]pyrazine-7-carboxamide]
IC50 [1]: 2140 nM
IC50 [2]: 14100 nM
EC50 [3]: 24700 nM
